# Assay results as given in patent US7312322B1, “Genetic sequences encoding steroid and juvenile hormone receptor polypeptides and insecticidal modalities therefor” (priority 1998, dated 2007).
# Key:
# [1] = molecular target: T1, linker and ligand-binding regions of the D. melanogaster EcR polypeptide and partner protein (USP polypeptide) (Drosophila melanogaster, UniProt P34021); test: [3H]ponasterone A binding assay in cells infected by recombinant baculovirus (modified method of Yund et al); details: compared to the naturally-occurring ecdysone holoreceptor in L. cuprina embryos; no specific binding with control virus
# T1 construct: made in house; host or cells: recombinant baculovirus in insect Sf21 and Sf9 cells
# T1 sequence (P34021 419-654 limits assumed): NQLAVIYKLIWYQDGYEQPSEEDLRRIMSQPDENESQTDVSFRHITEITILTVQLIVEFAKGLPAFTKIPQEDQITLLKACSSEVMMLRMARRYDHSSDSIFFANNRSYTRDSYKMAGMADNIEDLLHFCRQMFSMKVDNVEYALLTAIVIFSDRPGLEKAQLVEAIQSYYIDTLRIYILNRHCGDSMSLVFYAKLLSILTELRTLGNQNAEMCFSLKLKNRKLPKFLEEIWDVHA
# T1 sequence (P20153 239-498 partner limits assumed): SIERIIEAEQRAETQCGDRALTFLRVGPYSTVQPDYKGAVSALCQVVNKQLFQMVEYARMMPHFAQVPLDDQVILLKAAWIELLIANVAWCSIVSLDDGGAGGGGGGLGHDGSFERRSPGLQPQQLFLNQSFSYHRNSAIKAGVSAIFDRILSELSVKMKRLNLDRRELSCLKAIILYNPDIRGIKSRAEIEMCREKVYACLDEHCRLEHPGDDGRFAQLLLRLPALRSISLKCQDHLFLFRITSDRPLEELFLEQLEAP
# Description: The segment of pDmEcR.USP.DUAL which encodes the tagged linker and ligand-binding regions of the EcR polypeptide and partner protein (USP polypeptide) sequences, placed operably under the control of polyhedrin and p10 promoters, respectively, was recombined into a baculovirus genome, by employing the Tn7 transposition system (Luckow et al, (1993). The polypeptide products were then co-expressed in insect Sf21 and Sf9 cells, where they associated into a functional complex.
# The correctly-folded and associated complex formed by the truncated Ecr polypeptide and truncated EcR partner protein (USP polypeptide), is used for X-ray and NMR structural analysis and for high-throughput screens.
# [2] = molecular target: T2, chimeric EcR polypeptide encoded by plasmid pSGLD (UniProt O18531+P34021, A395P/D402E/DEL360-378/E403D/F552Y/I397C/I665A/INS379CATEI/K578E/L663I/M356I/Q393S/Q448S/Q580E/R443K/S415P/S515N/S605P/T357Q/T417S/T456H/V458A/Y611F); test: CHO cell co-transfection CAT reporter assay, chimeric EcR plasmid pSGLD; format: cell-based, D. melanogaster / L. cuprina; details: 10 μM and 50 μM Muristerone A, comparable to D. melanogaster base EcR polypeptide (FIG. 2)
# T2 construct: expressed in transfected cells
# Method: (§1) FIG. 2 is a copy of a graphical representation showing the activity of plasmid pSGLD and pSGDL, containing chimeric EcR polypeptide subunits of insect ecdysone receptors, produced as described in the Examples. Cotransfection assays were performed as described in the Examples using plasmids pSGLD and pSGDL and the CAT reporter plasmid p(EcRE)7-CAT (1 ug/ml) and an independent reporter, pPGKLacZ at 1 μg/ml each. CAT/b-Gal (%) refers to CAT reporter activity expressed as a percentage relative to β-galactosidase activity produced by the internal control reporter, pPGKLacZ.
# (§2) In one exemplification of this embodiment, plasmids pSGLD and pSGDL are produced comprising coding regions derived from the EcR polypeptides of the D. melanogaster and L. cuprina ecdysone receptors. In plasmid pSGLD, the 5′-end of the open reading frame of the D. melanogaster sequence, encoding the N-terminal portion of the EcR polypeptide of the D. melanogaster ecdysone receptor to the end of the DNA-binding domain of said polypeptide, is fused to the 3′-end of the open reading frame of the L. cuprina sequence, encoding the C-terminal portion of the EcR polypeptide of the L. cuprina ecdysone receptor, from the D domain and hormone-binding domain to the carboxyl terminus. […]
# [3] = molecular target: T3, EcR polypeptide of the L. cuprina ecdysone receptor (Lucilia cuprina, UniProt O18531); test: CHO cell co-transfection CAT reporter assay, pSGLcEcR; format: cell-based; details: CHO cells, 48 h after transfection, average of three experiments (FIG. 1)
# T3 construct: Plasmid pF3 thus contains the complete open reading frame of the cDNA encoding the EcR polypeptide of the L. cuprina ecdysone receptor; expressed in transfected cells; host or cells: CHO cells
# T3 sequence (O18531 1-757): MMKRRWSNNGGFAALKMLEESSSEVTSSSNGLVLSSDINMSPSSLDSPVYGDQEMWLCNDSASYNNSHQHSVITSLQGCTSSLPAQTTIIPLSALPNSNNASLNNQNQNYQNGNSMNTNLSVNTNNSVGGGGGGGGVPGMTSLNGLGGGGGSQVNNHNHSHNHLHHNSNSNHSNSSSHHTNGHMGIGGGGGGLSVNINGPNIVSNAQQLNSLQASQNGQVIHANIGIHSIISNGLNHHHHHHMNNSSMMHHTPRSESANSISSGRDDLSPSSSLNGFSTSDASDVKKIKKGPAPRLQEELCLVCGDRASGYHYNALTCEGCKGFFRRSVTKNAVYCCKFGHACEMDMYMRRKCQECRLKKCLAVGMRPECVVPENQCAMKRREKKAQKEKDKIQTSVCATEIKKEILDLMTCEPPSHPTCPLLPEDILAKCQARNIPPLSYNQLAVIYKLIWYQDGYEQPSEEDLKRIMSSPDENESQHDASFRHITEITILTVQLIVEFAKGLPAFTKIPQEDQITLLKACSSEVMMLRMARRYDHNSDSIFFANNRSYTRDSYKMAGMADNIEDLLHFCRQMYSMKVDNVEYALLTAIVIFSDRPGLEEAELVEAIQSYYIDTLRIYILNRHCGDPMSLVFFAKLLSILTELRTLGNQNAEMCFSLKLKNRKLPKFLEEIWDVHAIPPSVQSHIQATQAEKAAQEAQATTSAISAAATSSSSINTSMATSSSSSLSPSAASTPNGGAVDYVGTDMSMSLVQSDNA
# Method: CHO cells were co-transfected with a mixture comprising the following DNAs, lysed and assayed for CAT and β-galactosidase enzyme activity, as described in the preceding Examples: • (1) one of the expression plasmids designated pSGDmEcR, or pSGLcEcR, or the parental expression plasmid pSG5 as a negative control, at a concentration of 1 μg/ml; and • (2) the CAT reporter plasmid p(EcRE)5CAT at a concentration of 1 μg/ml; and • (3) an independent LacZ reporter plasmid, pPGKLacZ, at a concentration of 1 μg/ml, included as a control to monitor transfection efficiency.
# CAT reporter gene expression was induced with 10 μM or 50 μM Muristerone A. In control samples, cells received only the carrier ethanol in place of Muristerone A.
# ELISA was used to quantify the synthesis of CAT and β-galactosidase enzymes, in extracts of cells forty eight hours after transfection. Account was taken of the variation between experiments, by normalizing the level of CAT enzyme to the level of β-galactosidase enzyme present in the same extract. Fold induction represents the normalized values for CAT gene expression in cells transfected with pSGDmEcR, pSGLcEcR or pSG5 in the presence of hormone divided by the normalized values for CAT gene expression in cells transfected with the same plasmid but in the absence of hormone. […]
# [4] = molecular target: T4, chimeric EcR polypeptide encoded by plasmid pSGDL (Drosophila melanogaster, UniProt P34021, A242T/A248V/C246S/D219E/E244D/N243S/R304H/S245A/S251I/S295N/V221A/V259L/Y240F); test: CHO cell co-transfection CAT reporter assay, chimeric EcR plasmid pSGDL; format: cell-based, L. cuprina / D. melanogaster; details: 10 μM and 50 μM Muristerone A, comparable to D. melanogaster base EcR polypeptide (FIG. 2)
# T4 construct: expressed in transfected cells
# Method: as §1, §2
# T4 sequence (P34021 other isoform, or with tags, fused parts or gaps with the stated changes): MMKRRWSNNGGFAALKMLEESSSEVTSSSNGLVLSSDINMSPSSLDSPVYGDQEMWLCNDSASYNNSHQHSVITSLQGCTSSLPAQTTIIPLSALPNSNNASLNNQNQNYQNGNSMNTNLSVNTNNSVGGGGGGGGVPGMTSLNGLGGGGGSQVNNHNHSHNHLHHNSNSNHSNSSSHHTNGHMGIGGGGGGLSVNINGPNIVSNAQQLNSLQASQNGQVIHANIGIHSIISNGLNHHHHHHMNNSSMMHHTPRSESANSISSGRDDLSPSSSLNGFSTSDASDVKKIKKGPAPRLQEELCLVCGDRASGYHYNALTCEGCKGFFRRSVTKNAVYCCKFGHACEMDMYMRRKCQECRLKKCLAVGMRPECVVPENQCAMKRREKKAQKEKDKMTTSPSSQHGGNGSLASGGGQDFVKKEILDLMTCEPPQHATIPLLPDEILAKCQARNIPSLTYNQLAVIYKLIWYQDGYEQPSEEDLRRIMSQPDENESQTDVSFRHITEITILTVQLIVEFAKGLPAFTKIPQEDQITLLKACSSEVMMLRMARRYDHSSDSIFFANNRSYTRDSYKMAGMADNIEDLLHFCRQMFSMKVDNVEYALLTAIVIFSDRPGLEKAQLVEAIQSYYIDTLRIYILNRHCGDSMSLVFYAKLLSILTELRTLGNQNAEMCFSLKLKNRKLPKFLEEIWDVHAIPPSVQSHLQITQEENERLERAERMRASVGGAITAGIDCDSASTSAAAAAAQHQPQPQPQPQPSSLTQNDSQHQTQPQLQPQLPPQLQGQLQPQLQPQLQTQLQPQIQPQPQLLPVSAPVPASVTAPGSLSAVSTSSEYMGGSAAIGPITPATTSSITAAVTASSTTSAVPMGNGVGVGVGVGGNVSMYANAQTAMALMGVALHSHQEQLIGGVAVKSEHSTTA
# T2 sequence (P34021+O18531 fused with the stated changes): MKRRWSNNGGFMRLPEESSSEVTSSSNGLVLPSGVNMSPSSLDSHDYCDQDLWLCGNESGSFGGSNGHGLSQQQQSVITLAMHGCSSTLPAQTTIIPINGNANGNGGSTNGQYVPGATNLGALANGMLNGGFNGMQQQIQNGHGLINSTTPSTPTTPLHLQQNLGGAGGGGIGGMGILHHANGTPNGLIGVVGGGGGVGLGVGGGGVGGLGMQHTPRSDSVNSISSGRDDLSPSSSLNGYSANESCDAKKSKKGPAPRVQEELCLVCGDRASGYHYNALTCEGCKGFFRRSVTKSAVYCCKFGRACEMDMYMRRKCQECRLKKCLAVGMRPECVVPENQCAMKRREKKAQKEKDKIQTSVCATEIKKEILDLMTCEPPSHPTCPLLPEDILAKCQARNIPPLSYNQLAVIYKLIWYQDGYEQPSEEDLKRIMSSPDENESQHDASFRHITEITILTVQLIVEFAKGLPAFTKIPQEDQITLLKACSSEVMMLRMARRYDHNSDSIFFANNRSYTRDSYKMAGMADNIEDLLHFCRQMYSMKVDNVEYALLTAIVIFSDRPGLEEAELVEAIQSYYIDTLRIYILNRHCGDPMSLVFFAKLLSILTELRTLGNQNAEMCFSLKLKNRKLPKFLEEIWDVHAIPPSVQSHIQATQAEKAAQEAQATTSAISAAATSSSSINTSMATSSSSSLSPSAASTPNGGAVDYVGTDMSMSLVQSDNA
compound,measurement,setting,value
[^3H]ponasterone A,binding of labelled ligand in cells infected by the recombinant baculovirus,[1],highly-significant increase in the binding
CC(C)CC[C@@H](O)[C@](C)(O)[C@H]1CC[C@@]2(O)C3=CC(=O)[C@]4(O)C[C@@H](O)[C@@H](O)C[C@]4(C)[C@H]3[C@H](O)C[C@]12C [Muristerone A],bioactivity in the CAT assay,[2],Significant bioactivity
same,CAT induction (fold induction),[3]; 50 μM steroid,about 30 fold
same,CAT induction (fold induction),[3]; 10 μm steroid,~15 fold
same,bioactivity in the CAT assay,[4],Significant bioactivity
